Results from patent publication US20100261710A1, “HDAC Inhibitors” (ARQULE, INC., priority 2007, published 2010).
Where two headings read alike, the source gives them in different places.

Assays:
[1] = test system: HH cells; assay: MTS cell viability assay, HH; format: cell-based; details: Homo sapiens, 72 hr, read-out: HH, IG50, MTS
Description: The MTS cell viability assay was used to determine the potency of proliferation inhibitor with. MTS measures mitochondrial dehydrogenase activity and serves as surrogate readout for the number of viable cells. The protocol described below is based upon the “CellTiter 96 Aqueous Non-Radioactive Cell Proliferation Assay” sold by Promega (Technical Bulletin No. 169).
(§1) For MTS assay, cells were plated in 96-well plates at 2000 cells per well and incubated in the presence of compounds for 72 hr. MTS was added to each well as instructed by manufacture (Promega) and plates were incubated for 4 h at 37° C. The absorbance of each well was measured at 490 nm using a microplate reader.

[2] = target: T1, HDAC1 (Homo sapiens, UniProt Q13547); assay: HDAC-1 immunocapture fluorescent biochemical assay (HeLa lysate); details: HDAC1 immunocaptured from HeLa extract
T1 construct: cell extract containing HDAC (HeLa in these experiments); endogenous in cells; host or cells: HeLa cell extract
Description: The HDAC-1 assay represents a novel immunocapture assay procedure. […] The HDAC1 is captured on a protein A coated plate using HDAC1 specific antibody, and is then allowed to react with the substrate.
This assay in performed in four general steps. In the first step (FIG. 1A), cell extract containing HDAC (HeLa in these experiments) is incubated with (cell signaling) rabbit polyclonal HDAC1 antibody (rabbit IgG antibody is used for background control) to allow binding of the enzyme to the antibody. In the second step, the complexed mixture is added to the protein A covered plate which captures the antibody. In the third step, after washing away unbound proteins, substrate and inhibitor are added and deacetylation is allowed to occur. […] The plate is then read on either Victor or Perkin Elmer Envision system using Umbilliferone filter set.
• A. HeLa extract complexed with HDAC1 antibody working solution (in DPBS):
Compound working solution (in HDAC buffer):
Compounds diluted in assay buffer at 2× Screening concentration. • D. Activator solution:
Trypsin (10 mg/mL) diluted 1:1600 in assay buffer containing 4 μM TSA.
Complexing of extract with antibody was carried out at room temperature for 60 min with rocking. Binding of complexes onto protein A plate was carried out at room temperature for 60 min in 50 μL. Reaction was carried out in […], in the protein A plate for 60 minutes at 37° C. 40 μL of the reaction was moved into white ½ area plate for activation and reading.
• 1. Set PIERCE Protein A plate to block with 150 μof 5% BSA in TB ST for 60 min at room temperature. • 2. […] Dilute complexes further ([…]) by addition of 3.5 mL of PBS (final total volume of 5 mL). • 4. Wash blocked protein A plate prior to complex addition with TBST. • 5. Add 50 μl of diluted complexes to Protein A plate and incubate for 60 min at room temperature. • 6. Wash plate with TB ST. • 7. Add 25 μl of diluted compounds (in HDAC buffer) to each well and incubate for 10 min at room temperature. • 8. […] Move 40 μl of reaction to a white plate and add 20 μl of activator/developer solution, mix thoroughly. • 10. Read plate.

[3] = test system: Hut78 cells; assay: MTS cell viability assay, Hut78; format: cell-based; details: Homo sapiens; Hut78, 72 hr; read-out: Hut78, IG50, MTS
Description: (§2) The MTS cell viability assay was used to determine the potency of proliferation inhibitor with. MTS measures mitochondrial dehydrogenase activity and serves as surrogate readout for the number of viable cells.
as §1

[4] = target: T2, HDAC3 (Homo sapiens, UniProt O15379); assay: HDAC isoform assay, HDAC3; format: biochemical
T2 construct: purchased BioMol
Description: The assay measures the ability of a small molecule to inhibit deacetylation of the substrate. Activator reagent recognizes the substrate only if the lysine has been deacetylated.
This homogeneous assay in performed in the same well without washing steps. The HDAC source, nuclear HeLa extract, is incubated with substrate in the presence of an inhibitor compound. At the end of the reaction time, activator solution, containing Trypsin and TSA, is added to stop the deacetylation reaction, and cleave the amino-coumarin from the deacetylated substrate. The plate is then read on either a Perkin Elmer Victor or Envision system using Umbilliferone filter set. […] The signal is directly proportional to the activity of HDACs and compound inhibition of HDAC is monitored by a decrease in signal.

[5] = test system: HDACs (nuclear HeLa extract); assay: pan-HDAC fluorescent biochemical assay with nuclear HeLa extract; details: HDAC peptide substrate, 60 min at 37° C.
Description: Substrate was synthesized in house. Stocks were prepared in DMSO (10 mM).
Compound working solution: Compounds dissolved in assay buffer at 4× Screening concentration. Activator solution: Trypsin (10 mg/mL) diluted 1:1600 in Assay Buffer containing 4 μM TSA.
Total reaction Volume: 40 μL
Reaction was allowed to run for 60 minutes at 37° C.
2. Combine in a white ½ area well plate: 10 μl of 4× compound (or buffer), 15 μl of substrate and 15 μl of HeLa extract. Mix well
3. Incubate at 37° C. for 60 min.
4. Prepare Activator solution. Dilute Trypsin 1:1600 in Assay Buffer+4μM TSA. 20 μl is needed per assay point.
5. Add 20 μl of prepared activator solution and mix thoroughly.
The hydroxamic-acid based compounds of the present invention were tested in the biochemical assay for their pan-HDAC inhibitory activity.

[6] = test system: MJ cells; assay: MTS cell viability assay, MJ; format: cell-based; details: 72 hr, read-out: MJ, IG50, MTS
Description: as §2, §1

[7] = target: T3, HDAC2 (Homo sapiens, UniProt Q92769); assay: HDAC isoform assay, HDAC2; format: biochemical; details: substrate KI-177; read-out: HDAC2, IC50, ELISA (KI-177)
T3 construct: purchased BioMol

[8] = test system: HCT-116 cells; assay: MTS cell viability assay, HCT-116; format: cell-based; details: Homo sapiens
Description: as §2, §1

[9] = target: T4, HDAC8 (Homo sapiens, UniProt Q9BY41); assay: HDAC isoform assay, HDAC8
T4 sequence (Q9BY41 1-377): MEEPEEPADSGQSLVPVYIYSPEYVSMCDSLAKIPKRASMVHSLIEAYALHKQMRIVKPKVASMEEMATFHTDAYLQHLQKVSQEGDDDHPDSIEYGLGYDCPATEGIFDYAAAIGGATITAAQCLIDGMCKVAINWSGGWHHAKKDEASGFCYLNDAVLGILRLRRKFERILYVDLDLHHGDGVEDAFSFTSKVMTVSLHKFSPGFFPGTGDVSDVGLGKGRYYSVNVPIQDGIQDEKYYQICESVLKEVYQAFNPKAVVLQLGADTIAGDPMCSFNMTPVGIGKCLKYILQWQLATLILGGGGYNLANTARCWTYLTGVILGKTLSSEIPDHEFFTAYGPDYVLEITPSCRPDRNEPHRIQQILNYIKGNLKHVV

[10] = substrate KI-177, read-out: HDAC3, IC50, ELISA (KI-177)
[11] = HCT-116, 72 hr, read-out: HCT-116, IG50, MTS
[12] = HCT-116, 72 h, read-out: HCT-116, IG50, MTS (uM)

T3 sequence (Q92769 whole entry, canonical isoform): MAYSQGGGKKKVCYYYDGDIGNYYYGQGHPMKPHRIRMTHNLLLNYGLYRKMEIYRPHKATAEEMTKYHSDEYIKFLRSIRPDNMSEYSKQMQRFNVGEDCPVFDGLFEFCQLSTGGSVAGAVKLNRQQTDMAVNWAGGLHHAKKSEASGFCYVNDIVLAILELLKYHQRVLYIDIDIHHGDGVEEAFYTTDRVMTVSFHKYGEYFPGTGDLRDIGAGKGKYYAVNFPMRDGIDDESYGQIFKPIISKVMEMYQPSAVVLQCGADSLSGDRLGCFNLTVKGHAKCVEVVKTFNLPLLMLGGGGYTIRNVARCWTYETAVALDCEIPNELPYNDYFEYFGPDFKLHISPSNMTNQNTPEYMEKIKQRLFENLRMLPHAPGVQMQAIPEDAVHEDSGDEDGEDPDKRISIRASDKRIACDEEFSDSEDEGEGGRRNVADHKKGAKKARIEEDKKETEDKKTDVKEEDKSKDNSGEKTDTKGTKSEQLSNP
T2 sequence (O15379 whole entry, canonical isoform): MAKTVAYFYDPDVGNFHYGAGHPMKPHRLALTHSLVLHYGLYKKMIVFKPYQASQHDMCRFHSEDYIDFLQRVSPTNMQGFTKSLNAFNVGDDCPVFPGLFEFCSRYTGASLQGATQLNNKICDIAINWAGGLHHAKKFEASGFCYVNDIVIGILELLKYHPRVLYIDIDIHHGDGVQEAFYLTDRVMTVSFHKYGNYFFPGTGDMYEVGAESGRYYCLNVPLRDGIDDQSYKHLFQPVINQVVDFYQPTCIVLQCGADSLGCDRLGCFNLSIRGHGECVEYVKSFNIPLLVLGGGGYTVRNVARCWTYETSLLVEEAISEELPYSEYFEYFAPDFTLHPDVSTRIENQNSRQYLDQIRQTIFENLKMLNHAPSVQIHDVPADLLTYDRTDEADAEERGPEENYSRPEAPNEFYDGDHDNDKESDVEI
T2 sequence (O75376 395-489 partner limits assumed): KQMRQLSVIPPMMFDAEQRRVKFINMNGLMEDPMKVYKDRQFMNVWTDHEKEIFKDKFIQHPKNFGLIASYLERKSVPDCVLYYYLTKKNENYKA
T1 sequence (Q13547 whole entry): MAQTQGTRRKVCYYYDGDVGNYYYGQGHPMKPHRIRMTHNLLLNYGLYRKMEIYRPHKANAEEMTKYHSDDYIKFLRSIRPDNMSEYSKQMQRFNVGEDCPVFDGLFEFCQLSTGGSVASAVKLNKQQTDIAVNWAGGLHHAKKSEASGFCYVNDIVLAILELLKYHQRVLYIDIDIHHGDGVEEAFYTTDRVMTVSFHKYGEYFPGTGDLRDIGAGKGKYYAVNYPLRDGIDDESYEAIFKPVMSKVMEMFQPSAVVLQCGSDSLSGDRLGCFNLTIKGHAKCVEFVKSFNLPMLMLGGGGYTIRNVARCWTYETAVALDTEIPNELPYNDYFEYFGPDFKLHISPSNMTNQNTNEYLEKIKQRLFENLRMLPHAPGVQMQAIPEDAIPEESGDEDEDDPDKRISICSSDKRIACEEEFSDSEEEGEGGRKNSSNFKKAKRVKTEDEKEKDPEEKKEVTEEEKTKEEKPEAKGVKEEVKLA

SMILES	IC50 [1] [nM]	IC50 [2] [nM]	IC50 [3] [nM]	IC50 [4, 10] [nM]	IC50 [5] [nM]	IC50 [6] [nM]	IC50 [7] [nM]	IC50 [8, 11] [µM]	IC50 [9] [nM]	melting point [°C]	IC50 [4] [nM]	IC50 [8, 12] [µM]
O=C(CCCCCCNC(=O)C(=O)c1cn2c3c(cccc13)CCC2)NO [compound 12, 7-{[5,6-dihydro-4H-pyrrolo[3,2,1-ij]quinolin-1-yl(oxo)acetyl]amino}-N-hydroxyheptanamide]	45	90.4	174	87.6	126	130	2320	0.701	6420	158 to 159		
O=C(CCCCCCNC(=O)Nc1cn2c3c(cccc13)CCC2)NO [compound 11, 7-[(5,6-dihydro-4H-pyrrolo[3,2,1-ij]quinolin-1-ylcarbamoyl)amino]-N-hydroxyheptanamide]	94	22	181	23	27.9	470	1340	0.492	492	185 to 187		
O=C(CCCCCNC(=O)Nc1cn2c3c(cccc13)CCC2)NO [compound 13, 6-[(5,6-dihydro-4H-pyrrolo[3,2,1-ij]quinolin-1-ylcarbamoyl)amino]-N-hydroxyhexanamide]	1020	18.9	1270	20.5	32.2		1780	0.636	918	161 to 163		
O=C(CCCCCCNC(=O)c1cn2c3c(cccc13)CCC2)NO [compound 3, N-[7-(hydroxyamino)-7-oxoheptyl]-5,6-dihydro-4H-pyrrolo[3,2,1-ij]quinoline-1-carboxamide]	111	41	240		69.8	120	2460		408	205 to 206	45.7	0.215
O=C(CCCNC(=O)C(=O)c1cn2c3c(cccc13)CCC2)NO [compound 9, 4-{[5,6-dihydro-4H-pyrrolo[3,2,1-ij]quinolin-1-yl(oxo)acetyl]amino}-N-hydroxybutanamide]	365	583	903		602	4110	3000		10000	95 to 97	630	5.02
O=C(CCCCCNC(=O)c1cn2c3c(cccc13)CCC2)NO [compound 2, N-[6-(hydroxyamino)-6-oxohexyl]-5,6-dihydro-4H-pyrrolo[3,2,1-ij]quinoline-1-carboxamide]	1720	13.2	2920		57.4	5000	1940		1090		13.6	0.63
O=C(CCCCCNC(=O)C(=O)c1cn2c3c(cccc13)CCC2)NO [compound 8, 6-{[5,6-dihydro-4H-pyrrolo[3,2,1-ij]quinolin-1-yl(oxo)acetyl]amino}-N-hydroxyhexanamide]	2620	45			115	7680	1800		9240	150 to 155	20.4	0.737
